Assay results as given in US20240294545A1 (CSPC Zhongqi Pharmaceutical Technology (Shijiazhuang) Co., …, priority 2020, published 2024).
Marks after values point to notes of the source that are not given here.

Tested on: subcutaneous xenograft tumor of human colon cancer cell line HT-29
Experiment: HT-29 subcutaneous xenograft, combined with irinotecan liposome injection
Type: in vivo, NU/NU mice
Settings: compound 25 mg/kg intragastric + irinotecan liposome 10 mg/kg ip
Description: 7 Efficacy Test of the Compounds of the Present Disclosure Combined with Irinotecan Liposome Injection on Inhibiting the Growth of Subcutaneous Xenograft Tumor of Human Colon Cancer Cell Line HT-29
7.1 Experimental Animals: NU/NU Mice, SPF, Female, 20 to 30 g.
Irinotecan liposome injection (HE072), 43 mg: 10 mL, milky white liquid, batch No. B37191202, provided by Preparation Research Institute 2 from CSPC Zhongqi Pharmaceutical Technology (Shijiazhuang) Co., Ltd., diluted to an appropriate concentration with 5% glucose injection while testing.
HT-29 cell, provided by Nanjing Kebai Biotechnology Co., Ltd.; 5A culture medium:fetal bovine serum=90%:10%, 37° C., 5% CO2.
NU/NU nude mice were subcutaneously inoculated with HT-29 human colon cancer cells. When the mean tumor volume reached about 170 mm^3 (9 days after inoculation), the animals were evenly divided into groups according to the tumor volume (d0), with 6 mice in each group. 10 mg/kg of HE072 was administered intraperitoneally once a week for 1 time. Vehicle control, 25 mg/kg of A-6, 25 mg/kg of A-46, and 25 mg/kg of AZD1390 were administered intragastrically once a day, from Monday to Thursday every week except Friday to Sunday, for 1 week (4 times). The tumor volume was measured twice a week, the body weight of mouse was weighed every day, and the data were recorded. The tumor volume (TV) was calculated according to the formula: TV=½×a×b2, wherein a and b represent the long and short diameters of tumor, respectively. Tumor growth inhibitory rate TGI (%)=[1−(Ti−T0)/(Vi−V0)]×100, wherein Ti represents the mean tumor volume of a given treatment group on a certain day; TO represents the mean tumor volume of this treatment group at the beginning of administration; Vi represents the mean tumor volume of the vehicle control group on a certain day (the same day as that in Ti); V0 represents the mean tumor volume of the vehicle control group at the beginning of administration. At the end of the test (d17), the animals were sacrificed, the tumors were stripped and weighed, and the tumor weight inhibitory rates were calculated.

In the case of `CC(C)n1c(=O)n(C)c2cnc3cc(F)c(-c4ccc(OCCCN5CCCCC5)nc4)cc3c21` [AZD1390, reference compound], the “D 16 TGI” value (day 16) is reported as 89.6%, the “D 16 TV (MEAN ± SD)” value (day 16) is reported as 244.2 ± 192.8***^### mm^3 and the Tumor weight (end of test) is reported as 0.18 ± 0.18 g. For the same molecule, the “Tumor weight inhibitory rate” value (end of test) was 74.7%.
